Among the data in PubChem BioAssay AID248 (DTP/NCI, 2004) are T/C values, retold here.

For the experiment, the system named is L1210 leukemia ip in BDF1 mice, survival T/C. The experiment is described as follows: NCI In Vivo Anticancer Drug Screen. Data for tumor model L1210 Leukemia (intraperitoneal) in B6D2F1 (BDF1) mice. The following applies: endpoint: mean survival time, higher = longer survival. The method, boiled down:
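Ratio derived from survival: compound-dosed mice over vehicle-dosed mice, all bearing a transplantable tumor.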

Setting [1] is: dose: 25.0 mg/kg/injection, schedule: Q01DX009 (ip), vehicle: Klucel (hydroxypropylcellulose) (HPC).
The mark [2] stands for this setting: dose: 50.0 mg/kg/injection, schedule: Q01DX009 (ip), vehicle: Klucel (hydroxypropylcellulose) (HPC).
[3] abbreviates: dose: 100.0 mg/kg/injection, schedule: Q01DX009 (ip), vehicle: Klucel (hydroxypropylcellulose) (HPC).
The mark [4] stands for this setting: dose: 100.0 mg/kg/injection, schedule: Q04DX002 (ip), vehicle: saline with Tween-80.
[5] abbreviates: dose: 200.0 mg/kg/injection, schedule: Q04DX002 (ip), vehicle: saline with Tween-80.
Setting [6] is: dose: 100.0 mg/kg/injection, schedule: Q01DX009 (ip), vehicle: saline with Tween-80.
Setting [7] is: dose: 100.0 mg/kg/injection, schedule: Q04DX003 (ip), vehicle: saline with Tween-80.
[8] abbreviates: dose: 200.0 mg/kg/injection, schedule: Q01DX009 (ip), vehicle: saline with Tween-80.
Where [9] appears, read: dose: 200.0 mg/kg/injection, schedule: Q04DX003 (ip), vehicle: saline with Tween-80.
[10] abbreviates: dose: 400.0 mg/kg/injection, schedule: Q04DX003 (ip), vehicle: saline with Tween-80.

The structures appear in SMILES notation. Where “and” joins values, the source holds several entries; their conditions need not be identical. Identical values can stand only once. Inconclusive results and toxic doses are left out.

Regarding `C=C(C)C(=Nc1ccc(Cl)c(Cl)c1)N(C)C`, the T/C was 98 % of control (dose: 55.0 mg/kg/injection, schedule: Q01DX Z (ip), vehicle: methylcellulose (MC)); 93 % of control (dose: 83.0 mg/kg/injection, schedule: Q01DX Z (ip), vehicle: methylcellulose (MC)); 93 % of control (dose: 125.0 mg/kg/injection, schedule: Q01DX Z (ip), vehicle: methylcellulose (MC)).

On to `CC1=C2/C=c3\[nH]/c(c(CCC(=O)NCCN)c3C)=C\c3[nH]c(c(C)c3CCC(=O)NCCN)CC3NC(CC(=N2)C1=NCCN)C(C)=C3NCCN` (stereo not drawn), for which the T/C was 97 % of control (dose: 37.5 mg/kg/injection, schedule: Q01DX001 (ip), vehicle: saline); 97 % of control and 111 % of control (dose: 75.0 mg/kg/injection, schedule: Q01DX001 (ip), vehicle: saline); 106 % of control and 120 % of control (dose: 150.0 mg/kg/injection, schedule: Q01DX001 (ip), vehicle: saline); 102 % of control (dose: 300.0 mg/kg/injection, schedule: Q01DX001 (ip), vehicle: saline).

With `N#CCC(=O)c1ccccc1`, the T/C (dose: 12.5 mg/kg/injection, schedule: Q01DX009 (ip), vehicle: Klucel (hydroxypropylcellulose) (HPC)) is 113 % of control; the T/C (dose: 18.75 mg/kg/injection, schedule: Q04DX003 (ip), vehicle: gum acacia) was 106 % of control; the T/C under setting [1] is 102 % of control; the T/C (dose: 37.5 mg/kg/injection, schedule: Q04DX003 (ip), vehicle: gum acacia) is 108 % of control; the T/C under setting [2] is 104 % of control.

On to `O=C(Nc1nc(Cl)nc(Cl)n1)N1CCOCC1`, for which the T/C (dose: 12.5 mg/kg/injection, schedule: Q04DX003 (ip), vehicle: saline with Tween-80) was 95 % of control; the T/C (dose: 25.0 mg/kg/injection, schedule: Q01DX009 (ip), vehicle: saline with Tween-80) is 113 % of control; the T/C (dose: 25.0 mg/kg/injection, schedule: Q04DX003 (ip), vehicle: saline with Tween-80) was 101 % of control.

In the case of `OCCCCOc1ccccc1`, the T/C is, setting by setting: (dose: 100.0 mg/kg/injection, schedule: Q01DX001 (ip), vehicle: saline) 105 % of control; (dose: 200.0 mg/kg/injection, schedule: Q01DX001 (ip), vehicle: saline) 100 % of control; (dose: 400.0 mg/kg/injection, schedule: Q01DX001 (ip), vehicle: saline) 96 % of control.

On to `CC1CCCN(C(=O)Nc2ccccc2)C1` (stereo not drawn), for which the T/C reads like this: (dose: 100.0 mg/kg/injection, schedule: Q04DX002 (ip), vehicle: saline) 104 % of control; (dose: 200.0 mg/kg/injection, schedule: Q04DX002 (ip), vehicle: saline) 115 % of control; (dose: 400.0 mg/kg/injection, schedule: Q04DX002 (ip), vehicle: saline) 96 % of control.

As to `NC(N)=N/N=C/c1ccc(Cl)c([N+](=O)[O-])c1`, the T/C (dose: 6.0 mg/kg/injection, schedule: Q01DX Z (oral), vehicle: methylcellulose (MC)) was 93 % of control; the T/C (dose: 15.0 mg/kg/injection, schedule: Q01DX Z (oral), vehicle: methylcellulose (MC)) is 115 % of control; the T/C (dose: 30.0 mg/kg/injection, schedule: Q01DX Z (oral), vehicle: methylcellulose (MC)) was 109 % of control; the T/C (dose: 120.0 mg/kg/injection, schedule: Q01DX Z (oral), vehicle: methylcellulose (MC)) was 96 % of control.

As to `O=[N+]([O-])c1ccc(N2CCC(CCCC3CCN(c4ccc([N+](=O)[O-])cc4[N+](=O)[O-])CC3)CC2)c([N+](=O)[O-])c1`, the T/C under setting [1] is 101 % of control; the T/C under setting [2] was 93 % of control; the T/C under setting [3] was 95 % of control and 105 % of control; the T/C (dose: 100.0 mg/kg/injection, schedule: Q04DX003 (ip), vehicle: Klucel (hydroxypropylcellulose) (HPC)) is 98 % of control; the T/C (dose: 200.0 mg/kg/injection, schedule: Q04DX003 (ip), vehicle: Klucel (hydroxypropylcellulose) (HPC)) is 97 % of control; the T/C (dose: 400.0 mg/kg/injection, schedule: Q04DX003 (ip), vehicle: Klucel (hydroxypropylcellulose) (HPC)) is 104 % of control.

As for `CN(c1ccccc1)P(=O)(N1CC1)N1CC1`, the T/C by setting is: (dose: 4.4 mg/kg/injection, schedule: Q01DX009 (ip), vehicle: carboxymethylcellulose (CMC)) 117 % of control; (dose: 6.2 mg/kg/injection, schedule: Q01DX001 (ip), vehicle: carboxymethylcellulose (CMC)) 111 % of control; (dose: 6.6 mg/kg/injection, schedule: Q01DX009 (ip), vehicle: carboxymethylcellulose (CMC)) 152 % of control; (dose: 12.5 mg/kg/injection, schedule: Q01DX001 (ip), vehicle: carboxymethylcellulose (CMC)) 104 % of control; (dose: 15.0 mg/kg/injection, schedule: Q01DX009 (ip), vehicle: carboxymethylcellulose (CMC)) 105 % of control; (dose: 22.0 mg/kg/injection, schedule: Q01DX001 (ip), vehicle: carboxymethylcellulose (CMC)) 123 % of control. In addition, the T/C (dose: 33.0 mg/kg/injection, schedule: Q01DX001 (ip), vehicle: carboxymethylcellulose (CMC)) is 159 % of control; the T/C (dose: 50.0 mg/kg/injection, schedule: Q01DX001 (ip), vehicle: carboxymethylcellulose (CMC)) was 115 % of control; the T/C (dose: 75.0 mg/kg/injection, schedule: Q01DX001 (ip), vehicle: carboxymethylcellulose (CMC)) was 102 % of control.

With `CC1(CC(=O)NN)OCCO1`, the T/C reads like this: (dose: 100.0 mg/kg/injection, schedule: Q01DX001 (ip), vehicle: Klucel (hydroxypropylcellulose) (HPC)) 104 % of control; (dose: 200.0 mg/kg/injection, schedule: Q01DX001 (ip), vehicle: Klucel (hydroxypropylcellulose) (HPC)) 102 % of control; (dose: 400.0 mg/kg/injection, schedule: Q01DX001 (ip), vehicle: Klucel (hydroxypropylcellulose) (HPC)) 107 % of control.

For `CC(=O)OCC1OC(n2ncc3c(=S)nc[nH]c32)C(OC(C)=O)C1OC(C)=O` (stereo not drawn), the T/C runs as follows: (dose: 12.5 mg/kg/injection, schedule: Q01DX005 (ip), vehicle: other) 98 % of control; (dose: 25.0 mg/kg/injection, schedule: Q01DX005 (ip), vehicle: other) 95 % of control; (dose: 50.0 mg/kg/injection, schedule: Q01DX005 (ip), vehicle: other) 104 % of control; (dose: 100.0 mg/kg/injection, schedule: Q01DX005 (ip), vehicle: other) 97 % of control; (dose: 200.0 mg/kg/injection, schedule: Q01DX005 (ip), vehicle: other) 93 % of control.

As for `Oc1ccc(CCCc2ccc3c(c2)OCO3)cc1`, the T/C by setting is: under setting [4], 104 % of control; under setting [5], 104 % of control.

`CCOC(=O)c1ccc(NC(=O)Nc2cc(Cl)c(OC)cc2OC)cc1`: the T/C runs as follows: under setting [3], 98 % of control; (dose: 200.0 mg/kg/injection, schedule: Q01DX009 (ip), vehicle: Klucel (hydroxypropylcellulose) (HPC)) 95 % of control; (dose: 400.0 mg/kg/injection, schedule: Q01DX009 (ip), vehicle: Klucel (hydroxypropylcellulose) (HPC)) 105 % of control.

Consider `C#CCSC(=S)NNc1ccccc1`, for which the T/C reads like this: under setting [6], 95 % of control; under setting [7], 101 % of control; under setting [8], 97 % of control; under setting [9], 97 % of control; under setting [10], 93 % of control.

`ClC(Cl)(Cl)C1OCCOCCO1`: the T/C was 93 % of control (dose: 100.0 mg/kg/injection, schedule: Q04DX002 (ip), vehicle: Klucel (hydroxypropylcellulose) (HPC)); 97 % of control (dose: 200.0 mg/kg/injection, schedule: Q04DX002 (ip), vehicle: Klucel (hydroxypropylcellulose) (HPC)); 107 % of control (dose: 400.0 mg/kg/injection, schedule: Q04DX002 (ip), vehicle: Klucel (hydroxypropylcellulose) (HPC)).

For `COc1cc(C=O)ccc1OCc1ccccc1`, the T/C by setting is: under setting [6], 96 % of control and 93 % of control; under setting [7], 110 % of control; under setting [8], 96 % of control; under setting [9], 94 % of control; (dose: 400.0 mg/kg/injection, schedule: Q01DX009 (ip), vehicle: saline with Tween-80) 98 % of control and 93 % of control; under setting [10], 100 % of control.

On to `CC1CC(C)(C)C/C1=N/Nc1ccc([N+](=O)[O-])cc1[N+](=O)[O-]` (stereo not drawn), for which the T/C is 97 % of control under setting [4]; 94 % of control under setting [5]; 87 % of control (dose: 400.0 mg/kg/injection, schedule: Q04DX002 (ip), vehicle: saline with Tween-80).

Turning to `Nc1cccnc1`, the T/C runs as follows: (dose: 5.0 mg/kg/injection, schedule: Q01DX009 (ip), vehicle: saline) 104 % of control; (dose: 10.0 mg/kg/injection, schedule: Q01DX009 (ip), vehicle: saline) 95 % of control; (dose: 20.0 mg/kg/injection, schedule: Q01DX009 (ip), vehicle: saline) 98 % of control.
